Results as given in ChEMBL document CHEMBL3813610, “Proteasome inhibition by new dual warhead containing peptido vinyl sulfonyl fluorides” (Bioorg Med Chem, 2016).

Test: Inhibition of 20S proteasome (unknown origin) using Suc-LLVY-AMC as substrate preincubated for 1 hr followed by substrate addition incubated for 1 hr by fluorescence analysis
Set-up: species or system Homo sapiens

Row | SMILES | IC50 [nM]
1 | CC(C)C[C@@H](CS(=O)(=O)F)NC(=O)[C@H](CC(C)C)NC(=O)[C@H](CC(C)C)NC(=O)[C@H](CC(C)C)NC(=O)OCc1ccccc1 | 17.8
2 | CC(C)C[C@@H](/C=C/S(=O)(=O)F)NC(=O)[C@H](CC(C)C)NC(=O)[C@H](CC(C)C)NC(=O)[C@H](CC(C)C)NC(=O)OCc1ccccc1 | 99
3 | CC(C)C[C@@H](CS(=O)(=O)F)NC(=O)[C@H](CC(C)C)NC(=O)[C@H](CC(C)C)NC(=O)OCc1ccccc1 | 89.1
4 | CC(C)C[C@@H](/C=C/S(=O)(=O)F)NC(=O)[C@H](CC(C)C)NC(=O)[C@H](CC(C)C)NC(=O)OCc1ccccc1 | 218
